From patent US20220265694A1, “COMPOSITIONS AND METHODS FOR TREATING AN INFECTION” (CMPD LICENSING, LLC, priority 2016, published 2022)
Where two headings read alike, the source gives them in different places.

Tests used:
[1] = tested on: Corynebacterium jeikeium; test: Expected efficacy of antibiotic agents; details: expected efficacy against Corynebacterium jeikeium; Gram: pos
[2] = tested on: Providencia rettgeri; test: Expected efficacy of antibiotic agents; details: expected efficacy against Providencia rettgeri; Gram: neg
[3] = tested on: Bordetella pertussis; test: Expected efficacy of antibiotic agents; details: expected efficacy against Bordetella pertussis; Gram: neg
[4] = tested on: Campylobacter jejuni; test: Expected efficacy of antibiotic agents; details: expected efficacy against Campylobacter jejuni; Gram: neg
[5] = tested on: Enterococcus faecalis; test: Expected efficacy of antibiotic agents; details: expected efficacy against Enterococcus faecalis; Gram: pos
[6] = tested on: Providencia stuartii; test: Expected efficacy of antibiotic agents; details: expected efficacy against Providencia stuartii; Gram: neg
[7] = tested on: Enterococcus faecium; test: Expected efficacy of antibiotic agents; details: expected efficacy against Enterococcus faecium; Gram: pos
[8] = tested on: Klebsiella oxytoca; test: Expected efficacy of antibiotic agents; details: expected efficacy against Klebsiella oxytoca; Gram: neg
[9] = tested on: Yersinia pestis
[10] = tested on: Clostridium perfringens
[11] = tested on: Viridans group streptococci; test: Expected efficacy of antibiotic agents; details: expected efficacy against Viridans group streptococci; Gram: pos
[12] = tested on: Morganella morganii; test: Expected efficacy of antibiotic agents; details: expected efficacy against Morganella morganii; Gram: neg
[13] = tested on: Klebsiella pneumoniae; test: Expected efficacy of antibiotic agents; details: expected efficacy against Klebsiella pneumoniae; Gram: neg
[14] = tested on: Haemophilus ducreyi; test: Expected efficacy of antibiotic agents; details: expected efficacy against Haemophilus ducreyi; Gram: neg
[15] = tested on: Enterobacter sakazakii; test: Expected efficacy of antibiotic agents; details: expected efficacy against Enterobacter sakazakii; Gram: neg
[16] = tested on: Streptococcus pneumoniae; test: Expected efficacy of antibiotic agents; details: expected efficacy against Streptococcus pneumoniae; Gram: pos
[17] = tested on: Haemophilus parainfluenzae; test: Expected efficacy of antibiotic agents; details: expected efficacy against Haemophilus parainfluenzae; Gram: neg
[18] = tested on: Clostridium difficile; test: Expected efficacy of antibiotic agents; details: expected efficacy against Clostridium difficile; Gram: anaer
[19] = tested on: Chlamydia trachomatis; test: Expected efficacy of antibiotic agents; details: expected efficacy against Chlamydia trachomatis; Gram: n/a
[20] = tested on: Diphtheroids; test: Expected efficacy of antibiotic agents; details: expected efficacy against Diphtheroids; Gram: pos
[21] = tested on: Enterobacter aerogenes; test: Expected efficacy of antibiotic agents; details: expected efficacy against Enterobacter aerogenes; Gram: neg
[22] = tested on: Serratia marcescens; test: Expected efficacy of antibiotic agents; details: expected efficacy against Serratia marcescens; Gram: neg
[23] = tested on: Proteus mirabilis; test: Expected efficacy of antibiotic agents; details: expected efficacy against Proteus mirabilis; Gram: neg
[24] = tested on: Neisseria gonorrhoeae; test: Expected efficacy of antibiotic agents; details: expected efficacy against Neisseria gonorrhoeae; Gram: neg
[25] = tested on: Shigella flexneri; test: Expected efficacy of antibiotic agents; details: expected efficacy against Shigella flexneri; Gram: neg
[26] = tested on: Shigella boydii; test: Expected efficacy of antibiotic agents; details: expected efficacy against Shigella boydii; Gram: neg
[27] = tested on: Staphylococcus aureus (MSSA); test: Expected efficacy of antibiotic agents; details: expected efficacy against Staphylococcus aureus (MSSA); Gram: pos
[28] = tested on: Legionella pneumophila
[29] = tested on: Klebsiella (Calymmatobacterium); test: Expected efficacy of antibiotic agents; details: expected efficacy against Klebsiella (Calymmatobacterium); Gram: neg
[30] = tested on: Chlamydia pneumoniae; test: Expected efficacy of antibiotic agents; details: expected efficacy against Chlamydia pneumoniae; Gram: n/a
[31] = tested on: Shigella sonnei; test: Expected efficacy of antibiotic agents; details: expected efficacy against Shigella sonnei; Gram: neg
[32] = tested on: Acinetobacter lwoffii; test: Expected efficacy of antibiotic agents; details: expected efficacy against Acinetobacter lwoffii; Gram: neg
[33] = tested on: Vibrio cholerae; test: Expected efficacy of antibiotic agents; details: expected efficacy against Vibrio cholerae; Gram: neg
[34] = tested on: Methicillin resistant staph aureus (MRSA); test: Expected efficacy of antibiotic agents; details: expected efficacy against Methicillin resistant staph aureus (MRSA); Gram: pos
[35] = tested on: Staphylococcus epidermidis; test: Expected efficacy of antibiotic agents; details: expected efficacy against Staphylococcus epidermidis; Gram: pos
[36] = tested on: Streptococcus agalactiae; test: Expected efficacy of antibiotic agents; details: expected efficacy against Streptococcus agalactiae; Gram: pos
[37] = tested on: Rickettsiae
[38] = tested on: Haemophilus influenzae; test: Expected efficacy of antibiotic agents; details: expected efficacy against Haemophilus influenzae; Gram: neg
[39] = tested on: Citrobacter diversus; test: Expected efficacy of antibiotic agents; details: expected efficacy against Citrobacter diversus; Gram: neg
[40] = tested on: Bacteroides fragilis; test: Expected efficacy of antibiotic agents; details: expected efficacy against Bacteroides fragilis; Gram: anaer
[41] = tested on: Shigella dysenteriae; test: Expected efficacy of antibiotic agents; details: expected efficacy against Shigella dysenteriae; Gram: neg
[42] = tested on: Corynebacterium urealyticum; test: Expected efficacy of antibiotic agents; details: expected efficacy against Corynebacterium urealyticum; Gram: pos
[43] = tested on: Mycoplasma pneumoniae; test: Expected efficacy of antibiotic agents; details: expected efficacy against Mycoplasma pneumoniae; Gram: n/a

CO/N=C(\C(=O)N[C@@H]1C(=O)N2C(C(=O)O)=C(CSc3nc(=O)c(=O)[nH]n3C)CS[C@H]12)c1csc(N)n1 [Ceftriaxone]
Efficacy [1]: no
Efficacy [2]: yes
Efficacy [3]: no
Efficacy [4]: no
Efficacy [5]: no
Efficacy [6]: yes
Efficacy [7]: no
Efficacy [8]: yes
Efficacy ([9]; expected efficacy against Yersinia pestis, Gram: neg): no
Efficacy ([10]; expected efficacy against Clostridium perfringens, Gram: anaer): yes
Efficacy [11]: yes
Efficacy [12]: yes
Efficacy [13]: yes
Efficacy [14]: yes
Efficacy [15]: yes
Efficacy [16]: yes
Efficacy [17]: yes
Efficacy [18]: no
Efficacy [19]: no
Efficacy [20]: no
Efficacy [21]: yes
Efficacy [22]: yes
Efficacy [23]: yes
Efficacy [24]: yes
Efficacy [25]: yes
Efficacy [26]: yes
Efficacy [27]: yes
Efficacy ([28]; expected efficacy against Legionella pneumophila, Gram: neg): no
Efficacy [29]: yes
Efficacy [30]: no
Efficacy [31]: yes
Efficacy [32]: no
Efficacy [33]: no
Efficacy [34]: no
Efficacy [35]: yes
Efficacy [36]: yes
Efficacy ([37]; expected efficacy against Rickettsiae, Gram: neg): no
Efficacy [38]: yes
Efficacy [39]: yes
Efficacy [40]: yes
Efficacy [41]: yes
Efficacy [42]: no
Efficacy [43]: no

CN[C@H](CC(C)C)C(=O)N[C@H]1C(=O)N[C@@H](CC(N)=O)C(=O)N[C@H]2C(=O)N[C@H]3C(=O)N[C@H](C(=O)N[C@H](C(=O)O)c4cc(O)cc(O)c4-c4cc3ccc4O)[C@H](O)c3ccc(c(Cl)c3)Oc3cc2cc(c3O[C@@H]2O[C@H](CO)[C@@H](O)[C@H](O)[C@H]2O[C@H]2C[C@](C)(N)[C@H](O)[C@H](C)O2)Oc2ccc(cc2Cl)[C@H]1O [Vancomycin]
Efficacy [1]: yes
Efficacy [2]: no
Efficacy [3]: no
Efficacy [4]: no
Efficacy [5]: yes
Efficacy [6]: no
Efficacy [7]: yes, not VRE
Efficacy [8]: no
Efficacy [9]: no
Efficacy [10]: no
Efficacy [11]: yes
Efficacy [12]: no
Efficacy [13]: no
Efficacy [14]: no
Efficacy [15]: no
Efficacy [16]: yes
Efficacy [17]: no
Efficacy [18]: yes
Efficacy [19]: no
Efficacy [20]: yes
Efficacy [21]: no
Efficacy [22]: no
Efficacy [23]: no
Efficacy [24]: no
Efficacy [25]: no
Efficacy [26]: no
Efficacy [27]: yes
Efficacy [28]: no
Efficacy [29]: no
Efficacy [30]: no
Efficacy [31]: no
Efficacy [32]: no
Efficacy [33]: no
Efficacy [34]: yes
Efficacy [35]: yes
Efficacy [36]: yes
Efficacy [37]: no
Efficacy [38]: no
Efficacy [39]: no
Efficacy [40]: no
Efficacy [41]: no
Efficacy [42]: yes
Efficacy [43]: no
